Source: patent US20110021440A1, “APOPTOTIC PATHWAY TARGETING FOR THE DIAGNOSIS AND TREATMENT OF CANCER” (UNIVERSITY OF MARYLAND, BALTIMORE, priority 2007, published 2011)
Entries after “also recorded” stand apart in the source; their conditions may differ. Peptide text beside a SMILES is read from it. * marks the point of attachment. Cbz = O=C(OCc1ccccc1)*

Assays:
MCF10A cells [1] = format: cell-based
Experimental: (§1) FIG. 7 illustrates tumor lines with reduced Bik resist apoptosis by cytoskeletal disruption.
(§2) FIG. 13 illustrates cells expressing the survival proteins Bcl-2 or Bcl-xL are highly resistant to cell death induced by cell rounding (LA). […] Nearly 60% of cells overexpressing Bcl-xL remain viable even at concentrations of LA as high as 20 μM. […] Viability was measured with XTT and each point represents the mean+/−S.D. for triplicate samples.
FIG. 19 illustrates that YC137 remains toxic to normal cells (MCF10A). […] Such compounds would not be expected to be effective therapies due to likely side effects on normal tissues. If compounds were only toxic to rounded cells, that would be acceptable, since normal tissues are attached and not rounded.
(§3) Several apoptotic stimuli were tested for their ability to induce Bik expression in MCF10A cells were evaluated (FIG. 7A). Compared to a Ramos positive control lysate, MCF10A cells express very low levels of Bik under normal growth conditions. […] Bik expression in MCF10A cells increased after treatment with Latrunculin-A (LA), an inhibitor of the actin cytoskeleton that causes cell rounding (Martin et al., Mol. Cell. Biol., 21:6529-6536 (2001)). Apoptosis caused by cell rounding and cytoskeletal disruption has been termed amorphosis (Martin et al., Biochim. Biophys. Acta., 1692:145-157 (2004)), and resistance to amorphosis is thought to contribute to metastatic potential by allowing tumor cells to tolerate the cell shape changes that occur during bloodborne dissemination (Martin et al., Oncogene, 23:4641-4645 (2004); Mehlen et al., Nat. Rev. Cancer, 6:449-458 (2006); Pinkas et al., Mol. Cancer. Res., 2:551-556 (2004)). […] Since Bik is induced by cell rounding, its loss in tumors may reduce their apoptotic sensitivity and yield a greater metastatic potential. In fact, reduced expression of Bik predicts increased nodal involvement in colorectal cancer (Bandres et al., Oncol. Rep., 12:287-292 (2004)). Conversely, forced expression of Bik inhibits systemic breast tumor growth (Zou et al., Cancer Res., 62:8-12 (2002)).

[2] = tested on: MCF10A cells stably expressing Bcl-2 (10A-Bcl2); test: Cell viability assay (XTT), 10A-Bcl2 cells; format: cell-based
Experimental: Viability was measured with XTT and each point represents the mean+/−S.D. for triplicate samples.

Bik protein [3] = test: Western blotting of Bik protein in MCF10A cells stably expressing Bcl-xL; format: cell-based, human; conditions: forced cell rounding, LA 5 μM, 24 h
Excerpt: (§4) MCF10A or MCF-7 cells show comparably low levels of Bik. […] This increase in Bik is so strong that the moderate increases observed with LA in MCF10A cells (FIG. 7B) cannot even be detected here due to the short exposure times necessary to prevent oversaturating signal.
as §4, with “FIG. 15 illustrates apoptotically-resistant cell accumulate high” for “MCF10A or MCF-7 cells show comparably low”, “Bik when rounded.” for “Bik.”, “7A)” for “7B)”

BCRP protein [4] = test: Western blotting of BCRP in Bt-474 cells; format: cell-based, human; conditions: LA 5 μM, 24 h, rounded
Experimental: (§5) FIG. 12 illustrates cell rounding also upregulates the BCRP drug resistance protein. […] MCF10A mammary epithelial cells or MCF-7 and Bt-474 breast tumor cells were grown for 24 h in standard media (Control), serum-free conditions (DMEM) or forced cell rounding through inhibition of actin polymerization with Latrunculin-A (LA, 5 μM—Rounded). […] Levels of actin remain constant.

BCRP protein [5] = test: Western blotting of BCRP in MCF-7 cells; format: cell-based, human; conditions: LA 5 μM, 24 h, rounded
Experimental: as §5

[6] = tested on: MCF10A cells stably expressing Bcl-xL; test: Cell viability assay (XTT), MCF10A cells expressing Bcl-xL; format: cell-based, human
Experimental: as §2

Bik protein [7] = test: Western blotting of Bik protein in MCF10A cells; format: cell-based, human; conditions: 24 h
Experimental: (§6) FIG. 1A relates to human mammary epithelial cells (MCF10A) grown for 24 h in the presence or absence of a proteasomal inhibitor (MG132, 5 μM). […] Lysates from Ramos cells are included as a positive control for Bik and parallel blotting for β-actin confirm equivalent levels of protein. FIG. 1B relates to Bik protein increases after forced cell rounding with the actin polymerization inhibitor, Latrunculin-A (LA, 5 μM for 24 h). Bik protein is low in standard growth media (GROW). […] Cell rounding may therefore act selectively to upregulate Bik rather than through a nonspecific apoptotic signal.
(§7) FIG. 6 illustrates Bik protein is degraded by the proteasome but remains reduced in tumor cell lines. Protein lysates from control cells (Ramos), nontumorigenic human mammary epithelial cells (MCF10A) or 11 human breast tumor cell lines were immunoblotted for Bik and b-actin as a loading control. […] Bik protein remained low in the tumor cell lines, even in the presence of MG132.
as §1
(§8) Bik values were normalized to amplification of GAPDH, which was highly consistent in all cell lines and dissociation curves confirmed specificity with a single major amplification product in each reaction type (FIG. 5B). Despite the detectable levels of mRNA, Bik protein levels were very low in the tumor lines and MCF10A cells under normal growth conditions. Since Bik can be degraded by the proteasome (Zhu et al., Oncogene, 24:4993-4999 (2005)), cells were treated with MG132 to inhibit the proteasome and increase detectable Bik levels (FIG. 6). […] Downregulation of Bik in MDA-MB-453 cells therefore occurs independently from mRNA expression. However, loss of Bik function as a common event in breast tumors continues to be supported by these finding.
as §3

breast tumor cell lines = test: Cell viability assay (XTT), breast tumor cell lines; format: cell-based, human; conditions: tumor cell lines with reduced Bik; up to very high doses, 5 μM LA; listed as LA
Experimental: as §1
as §3, with “Conversely, forced expression of Bik inhibits systemic breast tumor growth (Zou et al., Cancer Res., 62:8-12 (2002)).” left out

Bik protein [8] = test: Western blotting of Bik protein in MCF10A cells stably expressing Bcl-2; format: cell-based, human; conditions: forced cell rounding, LA 5 μM, 24 h
Excerpt: as §4
as §4, with “FIG. 15 illustrates apoptotically-resistant cell accumulate high” for “MCF10A or MCF-7 cells show comparably low”, “Bik when rounded.” for “Bik.”, “7A)” for “7B)”

BCRP protein [9] = test: Western blotting of BCRP in MCF10A cells; format: cell-based, human; conditions: LA 5 μM, 24 h, rounded
Experimental: as §5

[10] = tested on: Bax- and Bak-deficient MEFs (DKO); conditions: cited from earlier work
Bik protein [11] = test: Immunoblot of Bik protein in 11 human breast tumor cell lines; format: cell-based; conditions: +MG132 5 μM, 24 h; compared with MCF10A
Excerpt: as §7, §8

MCF10A cells [12] = test: Apoptosis / cell death in MCF10A cells (PARP cleavage); format: cell-based, human; conditions: for cell death: 24 h, TRAIL 1 μg/mL, CHX 30 μg/mL, DOX 3 μg/mL, not shown; for apoptosis as assessed by PARP cleavage: 24 hours
Experimental: as §6, §3

MDA-436 cells = test: Toxicity of microtentacle inhibitors to breast tumor cells; format: cell-based; conditions: 100 μM, even after 24 hours
Experimental: (§9) FIG. 23 illustrates methods used to image circulating tumor cells and microtentacles. Surgically-isolated blood vessels from mice are sutured to the ends of glass micropipettes to allow solution flow through the vessels. After endothelial labeling with Fluo-4 (green), MDA-436 breast tumor cells, stained with QDot-655 (red), were injected and allowed to circulate through the vessel. […] In the right panel the effects of microtentacle inhibitors are imaged with DIC microscopy. Detachment of vimentin-expressing breast tumor cell lines, like MDA-231 and MDA-436 (pictured, FIG. 23 D), stimulates the formation of rapidly-moving tubulin microtentacles (Whipple et al., “Vimentin filaments support extension of tubulin-based microtentacles in detached breast tumor cells”, Cancer Research, (2008), (under revision)). We added the kinesin inhibitor, tetracaine (100 μM) (Miyamoto et al., Biophys. J., 78:940-949 (2000)) and collected DIC images every 30 seconds (Yoon et al., “Microtentacles in detached breast tumor cells require kinesin motor activity”, manuscript in preparation (2008)). After approximately 10 minutes, tubulin microtentacles collapse dramatically (FIG. 23 E). This concentration of drug is non-toxic to these cells, even after 24 hours.

[13] = tested on: tubulin microtentacles of MDA-436 cells; test: DIC imaging of tubulin microtentacles in detached breast tumor cells; format: cell-based; conditions: tetracaine 100 μM
Experimental: as §9

[14] = LA 24 h, versus parental MCF10A
[15] = LA 5 μM, TRAIL 1 μg/mL, CHX 30 μg/mL, DOX 3 μg/mL

## COC(=O)N[C@@H](CCSC)C(=O)Oc1ccc(Nc2nc3c(s2)C(=O)c2ccccc2C3=O)cc1 [YC-137]
MCF10A cells [1]
  toxicity to attached and rounded cells: toxic to both attached and rounded MCF10A cells
  viability (XTT): lose viability
MCF10A cells [1]; YC-137 with LA 2.5 μM, 24 h
  cell death on combining with cell rounding: increases cell death
[2]; 1 μg/ml YC-137 combined with 2.5 μM LA
  decrease in cell viability (XTT) compared to YC-137 alone: greater than 2 fold
[2]; YC-137 1 μg/ml or 2.5 μg/ml with LA 2.5 μM, 24 h, P<0.05
  cell viability (XTT) compared to YC-137 alone: significant decrease in cell viability
[2]; YC-137 alone
  doses at which YC-137 causes toxicity on its own: higher than 1 μM
[2]; YC-137 at lower levels
  effect on rounded versus attached cells: affects rounded cells more than attached cells
[2]; YC-137 with LA 2.5 μM, 24 h
  cell death on combining with cell rounding: increases cell death

## C/C1=C/C(=O)O[C@@H]2C[C@@H](CC[C@H](C)/C=C\C=C\CC1)O[C@@](O)([C@@H]1CSC(=O)N1)C2 [Latrunculin-A]
Bik protein [3]
  Bik protein (Western blotting): dramatic increases in Bik protein
BCRP protein [4]
  BCRP protein (Western blotting): not
MCF10A cells [1]
  LA concentration at which cell death is maximal: 5 µM
MCF10A cells [1]; LA 24 h, doses as low as 2.5 μM
  cell viability (XTT): drops significantly
BCRP protein [5]
  BCRP protein (Western blotting): increases BCRP protein
[6]; [14]
  resistance to apoptosis induced by cell rounding (XTT): significantly resistant
[6]; LA as high as 20 μM, 24 h
  cells remaining viable (XTT): ~60%
Bik protein [7]; [15]
  Bik protein (Western blotting): increases; also recorded: did increase Bik significantly
Breast tumor cell lines
  resistance to LA-induced apoptosis (XTT viability): highly resistant to LA-induced apoptosis; also recorded: significant resistance to apoptosis
[2]; [14]
  resistance to apoptosis induced by cell rounding (XTT): significantly resistant
[2]; cell rounding
  tolerated doses of LA: ≤ 20 µM
Bik protein [8]
  Bik protein (Western blotting): dramatic increases in Bik protein
BCRP protein [9]
  BCRP protein (Western blotting): increases BCRP protein

## BH3I-1
[10]
  toxicity against cells that lack Bax and Bak: toxic against cells that lack Bax and Bak

## CC(C)C[C@@H](C=O)NC(=O)[C@H](CC(C)C)NC(=O)[C@H](CC(C)C)NC(=O)OCc1ccccc1 [MG132] (Cbz-Leu-Leu-Leu-aldehyde)
Bik protein [7]; MG132 5 μM
  Bik protein (Western blotting): strong induction of Bik protein; also recorded: strongly upregulated; also recorded: strongly increased
Bik protein [11]
  Bik protein (immunoblot): significantly lower levels of Bik protein; also recorded: remained low

## COc1cccc2c1C(=O)c1c(O)c3c(c(O)c1C2=O)C[C@@](O)(C(=O)CO)C[C@@H]3O[C@H]1C[C@H](N)[C@H](O)[C@H](C)O1 [Doxorubicin]
Bik protein [7]; [15]
  Bik protein (Western blotting): did not induce significant expression of Bik; also recorded: do not increase Bik levels; also recorded: did not increase Bik protein
MCF10A cells [12]
  cell death: causes cell death comparable to LA
  apoptosis as assessed by PARP cleavage: does induce apoptosis

## CCCCNc1ccc(C(=O)OCCN(C)C)cc1 [tetracaine]
MDA-436 cells
  toxicity to the cells: non-toxic
[13]
  time to collapse of tubulin microtentacles: approximately 10 minutes

## C[C@@H]1C[C@@H]([C@H](O)CC2CC(=O)NC(=O)C2)C(=O)[C@@H](C)C1 [Cycloheximide]
Bik protein [7]; [15]
  Bik protein (Western blotting): do not increase Bik levels
Bik protein [7]; LA 5 μM, TRAIL 1 μg/mL, CHX 30 μg/mL, DOX 3 μg/mL, listed as cycloheximide
  Bik protein (Western blotting): did not induce significant expression of Bik; also recorded: did not increase Bik protein
MCF10A cells [12]
  cell death: causes cell death comparable to LA
  apoptosis as assessed by PARP cleavage: does induce apoptosis

B1: TRAIL: apoptotic stimulus (protein, UniProt P50591 1-281, looked up)
Tumor necrosis factor ligand …: MAMMEVQGGPSLGQTCVLIVIFTVLLQSLCVAVTYVYFTNELKQMQDKYSKSGIACFLKEDDSYWDPNDEESMNSPCWQVKWQLRQLVRKMILRTSEETISTVQEKQQNISPLVRERGPQRVAAHITGTRGRSNTLSSPNSKNEKALGRKINSWESSRSGHSFLSNLHLRNGELVIHEKGFYYIYSQTYFRFQEEIKENTKNDKQMVQYIYKYTSYPDPILLMKSARNSCWSKDAEYGLYSIYQGGIFELKENDRIFVSVTNEHLIDMDHEASFFGAFLVG
Bik protein [7]; [15]
  Bik protein (Western blotting): did not induce significant expression of Bik; also recorded: do not increase Bik levels; also recorded: did not increase Bik protein
MCF10A cells [12]
  cell death: causes cell death comparable to LA
  apoptosis as assessed by PARP cleavage: does induce apoptosis
